{"source": "patent US20040005291A1", "about": "“Methods for regulating co-stimulatory molecule expression with reactive oxygen” (priority 2001, published 2004)", "key": {"Fas on HL60 cells": {"system": "Fas on HL60 cells", "experiment": "Cell surface Fas expression, flow cytometry with anti-Fas", "format": "cell-based", "procedure": "Methods: HL60 cells were incubated with insulin or under in conditions of low glucose overnight. Cells were then harvested, stained with fluorescent labeled anti-Fas, or with isotype controls as indicated. […] Data were analyzed using Becton Dickinson CellQuest software."}, "[1]": {"system": "reactive oxygen in neural stem cells", "conditions": "DCF-DA stain, FIG. 4", "procedure": "FIG. 4 is a graph depicting the effects of ethanol in neural stem cells. The cells were stained with DCF-DA.\nMethods: Neural stem cells were treated as described above."}, "[2]": {"system": "co-stimulatory molecules in neural stem cells"}, "B7.2 on U937 cells": {"system": "B7.2 on U937 cells", "conditions": "0.25 mM H202, 48 hours", "procedure": "(§1) The cells were then exposed to 200 mW of low frequency microwaves for 30 minutes, 1 hour, or 3 hours. Cells were then stained with DCF-DA (Molecular Probes, Inc. Eugene, Oreg.) as an indicator of relative levels of H202. Cells were also stained with fluorescent labeled antibodies to human B7.2 (Pharmingen, Inc.), versus fluorescent labeled, isotype matched control antibodies, upper panels, left and right, respectively. Indicated levels represent the ratio of specific B7.2 stain over the fluorescently labeled isotype control for each condition. Replicate samples, microwaved for the indicated time periods, were subsequently cultured for an additional 21 hours and stained for H202 and B7.2, as indicated, lower panels. Cells were analyzed flow cytometrically using a Coulter Excel Flow Cytometer. Data were analyzed using Becton Dickinson CellQuest software.\n(§2) Methods: Human myelocyte cells U937, HL60, PC12, and PC12Trk cells were cultured in the presence of subcytotoxic doses (0.25 mM) of H202 for 48 hours, harvested and stained with isotype controls or fluorescent labeled anti-B7.2 as described in Example 1. Cells were analyzed flow cytometrically using a Coulter Excel Flow Cytometer. Data were analyzed using Becton Dickinson CellQuest software."}, "[3]": {"system": "B7.2 on PC12Trk neural cell line", "conditions": "PC12Trk cells, 0.25 mM H202, 48 hours", "procedure": "as §1, §2"}, "B7.2 on HL60 cells": {"system": "B7.2 on HL60 cells", "conditions": "0.25 mM H202, 48 hours", "procedure": "as §1, §2"}, "[4]": {"system": "B7.2 on PC12 neural cell line", "conditions": "PC12 cells, 0.25 mM H202, 48 hours", "procedure": "as §1, §2"}, "[5]": {"system": "Fas on keratinocyte cell line", "conditions": "mouse keratinocyte cell line, 0.25 mM H2O2, 12 or 24 hours", "procedure": "(§3) A mouse keratinocyte cell line was incubated with or without 0.25 mM Hydrogen Peroxide (H2O2) for 12 or 24 hours. Then the level of B7.1 and Fas were evaluated. The data is attached as FIGS. 3A and 3B."}, "[6]": {"system": "B7.1 on keratinocyte cell line", "conditions": "mouse keratinocyte cell line, 0.25 mM H2O2, 12 or 24 hours", "procedure": "as §3"}, "B7 on MCF7 cells": {"system": "B7 on MCF7 cells", "conditions": "H2O2 at subcytotoxic levels", "excerpt": "We added H2O2 (at subcytotoxic levels) directly to cells (MCF7, HL60, U937, and neural cells PC12 and PC12Trk^15) in culture to see if this caused changes in B7 expression."}, "Fas and B7": {"system": "Fas and B7", "experiment": "Fas and B7 levels in cells in the presence of 2-deoxyglucose", "format": "cell-based", "conditions": "cells where glucose cannot bind to its receptor", "procedure": "[…] Cells were then harvested, stained with fluorescent labeled anti-Fas, or with isotype controls as indicated. […] Data were analyzed using Becton Dickinson CellQuest software."}}}
{"compound": "insulin", "values": [{"measurement": "cell surface Fas expression", "setting": "Fas on HL60 cells; HL60 cells incubated with insulin overnight", "result": "loss of cell surface Fas expression"}, {"measurement": "reduction of levels of Fas", "setting": "Fas on HL60 cells; addition of insulin to cells in culture", "result": "ten-fold"}]}
{"compound": "CCO", "note": "[alcohol, ethanol]", "values": [{"measurement": "reactive oxygen", "setting": "[1]", "result": "increase reactive oxygen"}, {"measurement": "induction of co-stimulatory molecules", "setting": "[2]", "result": "increased induction of co-stimulatory molecules"}]}
{"compound": "OO", "note": "[H2O2, Hydrogen Peroxide]", "values": [{"measurement": "cell surface expression of B7.2", "setting": "B7.2 on U937 cells", "result": "increased cell surface expression of B7.2"}, {"measurement": "cell surface expression of B7.2", "setting": "[3]", "result": "increased cell surface expression of B7.2"}, {"measurement": "cell surface expression of B7.2", "setting": "B7.2 on HL60 cells", "result": "increased cell surface expression of B7.2"}, {"measurement": "cell surface expression of B7.2", "setting": "[4]", "result": "increased cell surface expression of B7.2"}, {"measurement": "level of expression of Fas", "setting": "[5]", "result": "increases"}, {"measurement": "level of expression of B7.1", "setting": "[6]", "result": "increases"}, {"measurement": "B7 expression", "setting": "B7 on MCF7 cells", "result": "increase in B7"}]}
{"compound": "O=CC[C@@H](O)[C@H](O)[C@H](O)CO", "note": "[2-deoxyglucose]", "values": [{"measurement": "levels of these molecules (Fas and B7)", "setting": "Fas and B7", "result": "substantial reductions"}]}
